According to ChEMBL document CHEMBL5344477, “Discovery of benzoheterocyclic-substituted amide derivatives as apoptosis signal-regulating kinase 1 (ASK1) inhibitors” (RSC Med Chem, 2024):

Columns and labels:
[1] = Half life in Sprague-Dawley rat at 2.5 mg/kg, po measured upto 24 hrs by LC-MS/MS analysis; assay type: ADME, organism-based; settings: in vivo
[2] = Metabolic stability in rat liver microsomes assessed as half life at 1 uM measured upto 90 mins by LC-MS/MS analysis; assay type: ADME, Microsome
[3] = Oral bioavailability in Sprague-Dawley rat at 2.5 mg/kg measured upto 24 hrs by LC-MS/MS analysis; assay type: ADME, organism-based; settings: in vivo
[4] = Cmax in Sprague-Dawley rat at 0.5 mg/kg, iv measured upto 24 hrs by LC-MS/MS analysis; assay type: ADME, organism-based; design: time < 24 hrs, dose 0.5 mg/kg, route iv; settings: in vivo
[5] = Cmax in Sprague-Dawley rat at 2.5 mg/kg, po measured upto 24 hrs by LC-MS/MS analysis; assay type: ADME, organism-based; design: dose 2.5 mg/kg, time < 24 hrs, route po; settings: in vivo
[6] = Metabolic stability in rat liver microsomes assessed as clearance at 1 uM measured upto 90 mins by LC-MS/MS analysis; assay type: ADME, Microsome; settings: read-out: CLH
[7] = Metabolic stability in human liver microsomes assessed as clearance at 1 uM measured upto 90 mins by LC-MS/MS analysis; assay type: ADME, Microsome; settings: read-out: CLH
[8] = Apparent […] clearance in Sprague-Dawley rat at 0.5 mg/kg, iv measured upto 24 hrs by LC-MS/MS analysis; assay type: ADME, organism-based; settings: in vivo
[9] = AUClast in Sprague-Dawley rat at 2.5 mg/kg, po measured upto 24 hrs by LC-MS/MS analysis; assay type: ADME, organism-based; design: dose 2.5 mg/kg, time < 24 hrs, route po; settings: in vivo
[10] = AUClast in Sprague-Dawley rat at 0.5 mg/kg, iv measured upto 24 hrs by LC-MS/MS analysis; assay type: ADME, organism-based; design: time < 24 hrs, dose 0.5 mg/kg, route iv; settings: in vivo
[11] = Half life in Sprague-Dawley rat at 0.5 mg/kg, iv measured upto 24 hrs by LC-MS/MS analysis; assay type: ADME, organism-based; settings: in vivo
[12] = Volume of distribution at steady state in Sprague-Dawley rat at 0.5 mg/kg, iv measured upto 24 hrs by LC-MS/MS analysis; assay type: ADME, organism-based; settings: in vivo, read-out: Vdss
[13] = Metabolic stability in human liver microsomes assessed as half life at 1 uM measured upto 90 mins by LC-MS/MS analysis; assay type: ADME, Microsome
[14] = Oral bioavailability in Sprague-Dawley rat at 5 mg/kg measured upto 24 hrs by LC-MS/MS analysis; assay type: ADME, organism-based; settings: in vivo
[15] = AUClast in Sprague-Dawley rat at 1 mg/kg, iv measured upto 24 hrs by LC-MS/MS analysis; assay type: ADME, organism-based; design: dose 1 mg/kg, time < 24 hrs, route iv; settings: in vivo
[16] = Half life in Sprague-Dawley rat at 5 mg/kg, po measured upto 24 hrs by LC-MS/MS analysis; assay type: ADME, organism-based; settings: in vivo
[17] = Cmax in Sprague-Dawley rat at 1 mg/kg, iv measured upto 24 hrs by LC-MS/MS analysis; assay type: ADME, organism-based; design: dose 1 mg/kg, time < 24 hrs, route iv; settings: in vivo
[18] = Cmax in Sprague-Dawley rat at 5 mg/kg, po measured upto 24 hrs by LC-MS/MS analysis; assay type: ADME, organism-based; design: dose 5 mg/kg, time < 24 hrs, route po; settings: in vivo
[19] = AUClast in Sprague-Dawley rat at 5 mg/kg, po measured upto 24 hrs by LC-MS/MS analysis; assay type: ADME, organism-based; design: dose 5 mg/kg, time < 24 hrs, route po; settings: in vivo
[20] = Half life in Sprague-Dawley rat at 1 mg/kg, iv measured upto 24 hrs by LC-MS/MS analysis; assay type: ADME, organism-based; settings: in vivo
[21] = Apparent […] clearance in Sprague-Dawley rat at 1 mg/kg, iv measured upto 24 hrs by LC-MS/MS analysis; assay type: ADME, organism-based; settings: in vivo
[22] = Volume of distribution at steady state in Sprague-Dawley rat at 1 mg/kg, iv measured upto 24 hrs by LC-MS/MS analysis; assay type: ADME, organism-based; settings: in vivo, read-out: Vdss

Row | Structure (SMILES) | half-life [1] [h] | half-life at 1 µM [2] [h] | bioavailability [3] [%] | Cmax [4] [ng/mL] | Cmax [5] [ng/mL] | CLint scaled at 1 µM [6] [mL/min/kg] | CLint scaled at 1 µM [7] [mL/min/kg] | CL/F [8] [mL/min/kg] | AUC(0-t) at 24 h [9] [ng·h/mL] | AUC(0-t) at 24 h [10] [ng·h/mL] | half-life [11] [h] | Vd [12] [L/kg] | half-life at 1 µM [13] [h] | bioavailability [14] [%] | AUC(0-t) at 24 h [15] [ng·h/mL] | half-life [16] [h] | Cmax [17] [ng/mL] | Cmax [18] [ng/mL] | AUC(0-t) at 24 h [19] [ng·h/mL] | half-life [20] [h] | also measured
1 | CC(C)n1cnnc1-c1cccc(NC(=O)c2cc3c(cc2F)OC(C)(C)C(=O)N3C)n1 | 1.3 | 1.52 | 72.2 | 239 | 417 | 27.3 | 5.5 | 38 | 767 | 218 | 0.71 | 1.88 | 5.26 |  |  |  |  |  |  |  | 
2 | CC(C)n1cnnc1-c1cccc(NC(=O)c2cc3c(cc2F)OC(C)(C)C(=O)N3)n1 | 1.39 |  | 95 | 350 | 554 |  |  | 30 | 1260 | 276 | 0.74 | 1.35 |  |  |  |  |  |  |  |  | 
3 | CC(CO)n1cnnc1-c1cccc(NC(=O)c2cc3c(cc2F)CCCC(=O)N3C)n1 (configuration not stated) |  | 2.96 |  |  |  | 14 | 8.5 |  |  |  |  |  | 3.41 | 5.9 | 216 | 1.51 | 440 | 28 | 61 | 0.63 | CL/F [21]: 76.7 mL/min/kg; Vd [22]: 2.36 L/kg
4 | CN1C(=O)CCCc2cc(F)c(C(=O)Nc3cccc(-c4nncn4C4CC4)n3)cc21 |  | 3.15 |  |  |  | 13.2 | 11.1 |  |  |  |  |  | 2.6 | 121 | 1340 | 1.97 | 799 | 1850 | 7530 | 1.22 | CL/F [21]: 12.2 mL/min/kg; Vd [22]: 1.14 L/kg
5 | O=C1CCc2cc(F)c(C(=O)Nc3cccc(-c4nncn4C4CC4)n3)cc2N1 | 2 | 4.07 | 57.4 | 447 | 345 | 10.2 | 3.8 | 17.7 | 1330 | 469 | 0.72 | 0.96 | 7.54 |  |  |  |  |  |  |  | 
6 | CC(C)n1cnnc1-c1cccc(NC(=O)c2cc3c(cc2F)CCCC(=O)N3C)c1 |  | 3.97 |  |  |  | 10.4 | 7.8 |  |  |  |  |  | 3.72 | 33.2 | 449 | 1.44 | 758 | 341 | 712 | 0.8 | CL/F [21]: 36.8 mL/min/kg; Vd [22]: 1.44 L/kg
7 | O=C1COc2cc(F)c(C(=O)Nc3cccc(-c4nncn4C4CC4)n3)cc2N1 | 2.07 | 4.08 | 83.6 | 489 | 832 | 10.2 | 4 | 14 | 2390 | 592 | 0.97 | 1.07 | 7.24 |  |  |  |  |  |  |  | 
